Holding throughout (type): cell-based
One assay relates to Caki-2 cells. The experiment in a line: CTG (CellTiter-Glo) cell viability assay, Caki-2. To be noted: Homo sapiens, 72 h, 3 day incubation, read-out: CTG Chempartner - Caki-2 3 day: Average external-IC50. The procedure, abridged: (§1)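 MOLT-4 and Caki-2 cells were seeded at 10,000 per well and treated with a 9-point, 1:3 dilution series from 10 μM top concentration (0.2% DMSO). After 3 days at 37 °C, 5% CO2, viability was read by CellTiter-Glo luminescence and IC50 fitted by three-parameter logistic.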

Another assay concerns MOLT-4 cells. The assay can be described thus: CTG (CellTiter-Glo) cell viability assay, MOLT-4. To be noted: Homo sapiens, MOLT-4, 72 h, 3 day incubation, read-out: CTG Cell Viability Assay - MOLT-4 3 day: Average external-IC50. The essentials:
as §1
On the technique in general: Cellular ATP, detected with luciferase, serves as a proxy for viable cell number.

The target in a further assay is T1, BCL-XL (Homo sapiens, UniProt Q07817).
T1 construct: endogenous in cells; host or cells: MOLT-4
T1 sequence (Q07817 whole entry): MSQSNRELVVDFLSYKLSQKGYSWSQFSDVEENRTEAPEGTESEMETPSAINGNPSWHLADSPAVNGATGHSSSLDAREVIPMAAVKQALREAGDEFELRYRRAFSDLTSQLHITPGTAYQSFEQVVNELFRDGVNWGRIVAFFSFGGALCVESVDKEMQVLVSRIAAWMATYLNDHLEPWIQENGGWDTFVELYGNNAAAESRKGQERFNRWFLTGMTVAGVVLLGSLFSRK
The experiment in a line: Bcl-xL ELISA degradation in MOLT-4 cells, 6 h. To be noted: for DC50: read-out: Bcl-xL ELISA in MOLT-4 degradation 6 h: Mean external-Abs DC50. As to the method:
The letter codes for BCL-XL DC50 include: A (<0.01 μM); B (0.01-0.1 μM); C (>[…]); D (>0.5-1.0 μM); and E (>1.0 μM). The letter codes for Dmax % include A (>75%); B (50 to 75%); C (<50%).
For orientation: An ELISA detects its analyte on a solid surface through an enzyme-linked reagent.

Data on 22 compounds can be found in US20250197387A1, “BCL-XL DEGRADERS AND USES THEREOF” (Kymera Therapeutics, Inc., priority 2021, published 2025).

A value given as a limit tells only on which side of the number the result lay.

As to `Cc1ncsc1-c1ccc(CNC(=O)[C@@H]2C[C@@H](O)CN2C(=O)[C@@H](NC(=O)C2CCN(c3ccc(S(=O)(=O)NC(=O)c4nc(N5CCc6cccc(C(=O)Nc7nc8ccccc8s7)c6C5)ccc4-c4cnn(CC5CCCCC5)c4C)c(F)c3)CC2)C(C)(C)C)cc1` [I-339], the concentration for half-maximal inhibition (IC50) – broadly, the concentration that inhibits the measured activity by half – with Caki-2 cells lay within 1000 to 10000 nM. Besides, the IC50 with MOLT-4 cells was below 100 nM. Also, at BCL-XL, the Dmax (in general, the greatest extent of degradation seen) is above 75% and the DC50 – broadly, the concentration giving 50% degradation – was below 10 nM.
Consider `Cc1cnc(NC(=O)c2cccc3c2CN(c2ccc(-c4cnn(CC5CCCCC5)c4C)c(C(=O)NS(=O)(=O)CCCCCC(=O)N[C@H](C(=O)N4C[C@H](O)C[C@H]4C(=O)N[C@@H](C)c4ccc(-c5scnc5C)cc4)C(C)(C)C)n2)CC3)s1` [I-460], for which, in the assay on Caki-2 cells, the IC50 is above 10000 nM. Further, the IC50 with MOLT-4 cells is below 100 nM. Moreover, at BCL-XL, the Dmax is above 75% and the DC50 is 10 to 100 nM.
On the same counts, the results for `Cc1ncsc1-c1ccc([C@H](C)NC(=O)[C@@H]2C[C@@H](O)CN2C(=O)[C@@H](NC(=O)CCCCCCS(=O)(=O)NC(=O)c2nc(N3CCc4cccc(C(=O)Nc5nc6ccccc6s5)c4C3)ccc2-c2cnn(CC3CCCCC3)c2C)C(C)(C)C)cc1` [I-312] are 1000 to 10000 nM, below 100 nM, above 75% and 10 to 100 nM.
In the case of `Cc1ncsc1-c1ccc([C@H](C)NC(=O)[C@@H]2C[C@@H](O)CN2C(=O)[C@@H](NC(=O)CCCS(=O)(=O)NC(=O)c2nc(N3CCc4cccc(C(=O)Nc5nc6ccccc6s5)c4C3)ccc2-c2cnn(CC3CCCCC3)c2C)C(C)(C)C)cc1` [I-304], in the assay on Caki-2 cells, the IC50 is 1000 to 10000 nM. Further, the 50% inhibitory concentration (IC50) with MOLT-4 cells lay in the range of 100 to 1000 nM. For the same compound, at BCL-XL, the Dmax was above 75% and the half-maximal degradation concentration (DC50) is below 10 nM.
On the same counts, the results for `Cc1ncsc1-c1ccc(CNC(=O)[C@@H]2C[C@@H](O)CN2C(=O)[C@@H](NC(=O)[C@H]2CCN(c3ccc(S(=O)(=O)NC(=O)c4nc(N5CCc6cccc(C(=O)Nc7nc8ccccc8s7)c6C5)ccc4-c4cnn(CC5CCCCC5)c4C)cc3)C2)C(C)(C)C)cc1` [I-359] are above 10000 nM, below 100 nM, above 75% and below 10 nM.
On the same counts, the results for `Cc1cc(N(C)c2ccc(-c3cnn(CC4CCCC4)c3C)c(C(=O)NS(=O)(=O)CCCCCC(=O)N[C@H](C(=O)N3C[C@H](O)C[C@H]3C(=O)N[C@@H](C)c3ccc(-c4scnc4C)cc3)C(C)(C)C)n2)nnc1Nc1nc2ccccc2s1` [I-443] are above 10000 nM, above 3000 nM, above 75% and 100 to 500 nM.
On the same counts, the results for `Cc1ncsc1-c1ccc(CNC(=O)[C@@H]2C[C@@H](O)CN2C(=O)[C@@H](NC(=O)C2(F)CC2)C(C)(C)C)c(OCCN2CCN(CC[C@H](CSc3ccccc3)Nc3ccc(S(=O)(=O)NC(=O)c4ccc(N5CC6(CC(N7CCC[C@H]7c7ccccc7C7CC7)C6)C5)cc4)cc3S(=O)(=O)C(F)(F)F)CC2)c1` [I-400] are above 10000 nM, 100 to 1000 nM, above 75% and 10 to 100 nM.
Regarding `C#Cc1ccc([C@H](C)NC(=O)[C@@H]2C[C@@H](O)CN2C(=O)[C@@H](NC(=O)C2CN(c3ccc(S(=O)(=O)NC(=O)c4nc(N(C)c5cc(C)c(Nc6nc7ccccc7s6)nn5)ccc4-c4cnn(CC56CC7CC(CC(C7)C5)C6)c4C)cc3)C2)C(C)(C)C)cc1` [I-438], the IC50 in the assay on Caki-2 cells was above 10000 nM; in the assay with MOLT-4 cells, below 100 nM. This compound also returned a Dmax on BCL-XL above 75%. Moreover, the DC50 on BCL-XL was below 10 nM.
On the same counts, the results for `Cc1ncsc1-c1ccc([C@H](C)NC(=O)[C@@H]2C[C@@H](O)CN2C(=O)[C@@H](NC(=O)CCS(=O)(=O)NC(=O)c2nc(N3CCc4cccc(C(=O)Nc5nc6ccccc6s5)c4C3)ccc2-c2cnn(CC3CCCCC3)c2C)C(C)(C)C)cc1` [I-311] are 1000 to 10000 nM, below 100 nM, above 75% and 100 to 500 nM.
On the same counts, the results for `Cc1ncsc1-c1ccc(CNC(=O)[C@@H]2C[C@@H](O)CN2C(=O)[C@@H](NC(=O)CCc2cc(F)c(S(=O)(=O)NC(=O)c3nc(N4CCc5cccc(C(=O)Nc6nc7ccccc7s6)c5C4)ccc3-c3cnn(CC4CCCCC4)c3C)c(F)c2)C(C)(C)C)cc1` [I-347] are above 10000 nM, 100 to 1000 nM, above 75% and 10 to 100 nM.
With `C#Cc1ccc(CNC(=O)[C@@H]2C[C@@H](O)CN2C(=O)[C@@H](NC(=O)CCCCCS(=O)(=O)NC(=O)c2nc(N3CCc4cccc(C(=O)Nc5nc6ccccc6s5)c4C3)ccc2-c2cnn(CC(C)(C)C)c2C)C(C)(C)C)cc1` [I-471], the IC50 with Caki-2 cells is above 10000 nM. Moreover, in the assay on MOLT-4 cells, the IC50 was below 100 nM. For the same compound, at BCL-XL, the Dmax was above 75% and the DC50 lay within 10 to 100 nM.
On the same counts, the results for `Cc1ncsc1-c1ccc(CNC(=O)[C@@H]2C[C@@H](O)CN2C(=O)[C@@H](NC(=O)C2CN(c3ccc(S(=O)(=O)NC(=O)c4nc(N5CCc6cccc(C(=O)Nc7nc8ccccc8s7)c6C5)ccc4-c4cnn(CC5CCCCC5)c4C)cc3F)C2)C(C)(C)C)cc1` [I-330] are 1000 to 10000 nM, below 100 nM, 50 to 75% and 10 to 100 nM.
On the same counts, the results for `Cc1ncsc1-c1ccc([C@H](C)NC(=O)[C@@H]2C[C@@H](O)CN2C(=O)[C@@H](NC(=O)CCCCc2ccc(NC(=O)c3nc(N4CCc5cccc(C(=O)Nc6nc7ccccc7s6)c5C4)ccc3-c3cnn(CC4CCCCC4)c3C)cc2)C(C)(C)C)cc1` [I-298] are 1000 to 10000 nM, 100 to 1000 nM, below 50% and 500 to 1000 nM.
On the same counts, the results for `Cc1ncsc1-c1ccc([C@H](C)NC(=O)[C@@H]2C[C@@H](O)CN2C(=O)[C@H](NC(=O)CCCCCS(=O)(=O)NC(=O)c2nc(N3CCc4cccc(C(=O)Nc5nc6ccccc6s5)c4C3)ccc2-c2cnn(CC3CCCCC3)c2C)C(C)(C)CCOP(=O)(O)O)cc1` [I-416] are above 10000 nM, above 3000 nM, above 75% and 100 to 500 nM.
On to `Cc1ncsc1-c1ccc([C@H](C)NC(=O)[C@@H]2C[C@@H](O)CN2C(=O)[C@@H](NC(=O)C2CCN(c3ccc(S(=O)(=O)NC(=O)c4nc(N5CCc6cccc(C(=O)Nc7nc8ccccc8s7)c6C5)ccc4-c4cnn(CC5CCCCC5)c4C)cc3COP(=O)(O)O)CC2)C(C)(C)C)cc1` [I-334], for which the IC50 with Caki-2 cells was in the range of 1000 to 10000 nM. Besides, the IC50 in the assay with MOLT-4 cells fell in the range of 1000 to 3000 nM. Moreover, on BCL-XL, the Dmax was above 75% and the DC50 lay in the range of 100 to 500 nM.
On the same counts, the results for `Cc1cc(C(C(=O)N2C[C@H](O)C[C@H]2C(=O)NCc2ccc(-c3scnc3C)cc2OCCN(C)C2CCN(C(=O)c3nc(N4CCc5cccc(C(=O)Nc6nc7ccccc7s6)c5C4)ccc3-c3cnn(CC4CCCCC4)c3C)CC2)C(C)C)on1` (stereo partly shown) [I-322] are 100 to 1000 nM, 100 to 1000 nM, 50 to 75% and 100 to 500 nM.
With `Cc1c(-c2ccc(N3CCc4cccc(C(=O)Nc5nc6ccccc6s5)c4C3)nc2C(=O)NS(=O)(=O)CCCCCc2cccc3c2n(C)c(=O)n3C2CCC(=O)NC2=O)cnn1CC1CCCCC1` (stereo not shown) [I-426], in the assay on Caki-2 cells, the IC50 lay in the range of 1000 to 10000 nM. For the same compound, in the assay on MOLT-4 cells, the IC50 was below 100 nM. Also, on BCL-XL, the Dmax was above 75% and the DC50 is below 10 nM.
Take `Cc1ncsc1-c1ccc(CNC(=O)[C@@H]2C[C@@H](O)CN2C(=O)[C@@H](NC(=O)C2CCN(c3ccc(S(=O)(=O)NC(=O)c4nc(N5CCc6cccc(C(=O)Nc7nc8ccccc8s7)c6C5)ccc4-c4cnn(CC5CCCCC5)c4C)cc3C#N)CC2)C(C)(C)C)cc1` [I-360]: in the assay with Caki-2 cells, the IC50 is above 10000 nM. In addition, in the assay on MOLT-4 cells, the IC50 is 100 to 1000 nM. Further, at BCL-XL, the Dmax is above 75% and the DC50 was below 10 nM.
On the same counts, the results for `Cc1ncsc1-c1ccc(CNC(=O)[C@@H]2C[C@@H](O)CN2C(=O)[C@@H](NC(=O)CCCCCS(=O)(=O)NC(=O)c2nc(N3CCc4cccc(C(=O)Nc5nc6cccnc6s5)c4C3)ccc2-c2cnn(CC(C)(C)C)c2C)C(C)(C)C)cc1` [I-467] are above 10000 nM, 1000 to 3000 nM, above 75% and 100 to 500 nM.
On the same counts, the results for `Cc1ncsc1-c1ccc([C@H](C)NC(=O)[C@@H]2C[C@@H](O)CN2C(=O)[C@@H](NC(=O)CCCCCS(=O)(=O)NC(=O)c2nc(N3CCc4cccc(C(=O)Nc5nc6ccccc6s5)c4C3)ccc2-c2cnn(CC(C)(C)C)c2C)C(C)(C)C)cc1` [I-465] are above 10000 nM, 100 to 1000 nM, above 75% and 10 to 100 nM.
On the same counts, the results for `Cc1ncsc1-c1ccc([C@H](C)NC(=O)[C@@H]2C[C@@H](O)CN2C(=O)[C@@H](NC(=O)CCCCCS(=O)(=O)NC(=O)c2nc(N3CCc4cccc(C(=O)Nc5nc6cccnc6s5)c4C3)ccc2-c2cnn(CC3CCCCC3)c2C)C(C)(C)C)cc1` [I-363] are above 10000 nM, below 100 nM, above 75% and 10 to 100 nM.
In the case of `C#Cc1ccc(CNC(=O)[C@@H]2C[C@@H](O)CN2C(=O)[C@@H](NC(=O)CCCCCS(=O)(=O)NC(=O)c2nc(N3CCc4cccc(C(=O)Nc5nc6cccnc6s5)c4C3)ccc2-c2cnn(CC3CCCCC3)c2C)C(C)(C)C)cc1` [I-352], the half-maximal inhibitory concentration (IC50) in the assay on Caki-2 cells was above 10000 nM; with MOLT-4 cells, below 100 nM. At BCL-XL, this compound returned a Dmax above 75%. For the same compound, the DC50 on BCL-XL was below 10 nM.
